Laboratory results taken from patent US9315490B2, “2,5-substituted pyrimidines” (Grünenthal GmbH, priority 2014, dated 2016).

What was measured:
human PDE4B1 [1] = biological target: T1, human PDE4B1 (Homo sapiens, UniProt Q07343); experiment: cAMP HTRF assay to determine the activity of hPDE4B1; format: biochemical; details: inhibition of PDE4B at a test concentration of 1 μM
T1 construct: host or cells: Sf9 cells
Outline: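 Human recombinant PDE4B1 from Sf9 cells (4.8 U) in Tris-HCl, MgCl2, DTT, Tween 20 buffer at pH 7.8 with 40 nM cAMP (final), 30 min at room temperature. Reaction stopped with 1 mM IBMX; remaining cAMP detected by HTRF (665/620 nm ratio). IC50 from eight-concentration curves.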

human PDE4B1 [2] = biological target: T1, human PDE4B1; experiment: TR-FRET assay using the LANCE Ultra cAMP kit to determine the activity of hPDE4B1; format: biochemical; details: read-out: Inhibition in % (inhibition of PDE4B); for inhibition at 10 µM: test concentration 10 μM (marked in cell); for inhibition at 1 µM: test concentration 1 μM
Outline: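 Sf9-expressed recombinant human PDE4B1 (0.96 U) hydrolyses 500 nM cAMP for 30 minutes at room temperature in 50 mM Tris-HCl, 50 mM MgCl2, 5 mM DTT, pH 8.5. The reaction is stopped with IBMX, and residual cAMP is measured by TR-FRET (665/620 ratio). IC50 comes from ten concentrations.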

T1 sequence (Q07343 whole entry): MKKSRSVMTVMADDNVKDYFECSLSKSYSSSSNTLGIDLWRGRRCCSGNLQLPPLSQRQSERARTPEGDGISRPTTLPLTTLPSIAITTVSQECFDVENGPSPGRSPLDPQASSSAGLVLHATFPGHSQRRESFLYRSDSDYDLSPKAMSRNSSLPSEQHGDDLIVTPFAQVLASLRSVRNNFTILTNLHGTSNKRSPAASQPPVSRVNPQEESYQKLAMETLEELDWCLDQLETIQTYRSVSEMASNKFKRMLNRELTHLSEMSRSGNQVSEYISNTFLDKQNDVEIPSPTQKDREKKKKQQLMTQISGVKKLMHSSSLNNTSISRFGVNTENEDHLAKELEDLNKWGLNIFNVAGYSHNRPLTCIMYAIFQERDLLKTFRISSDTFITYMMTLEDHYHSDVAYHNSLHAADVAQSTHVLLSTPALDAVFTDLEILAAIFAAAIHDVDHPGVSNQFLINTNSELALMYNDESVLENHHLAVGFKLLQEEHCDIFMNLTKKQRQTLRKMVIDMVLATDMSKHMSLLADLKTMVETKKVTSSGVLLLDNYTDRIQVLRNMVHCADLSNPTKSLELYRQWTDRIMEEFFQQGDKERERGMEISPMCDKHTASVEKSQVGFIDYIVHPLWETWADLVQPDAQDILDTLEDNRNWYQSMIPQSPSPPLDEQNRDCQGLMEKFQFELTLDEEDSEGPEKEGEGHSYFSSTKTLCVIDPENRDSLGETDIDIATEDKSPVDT

Row | SMILES | inhibition at 1 µM (human PDE4B1 [1]) [%] | melting point [°C] | inhibition at 10 µM (human PDE4B1 [2]) [%] | inhibition at 1 µM (human PDE4B1 [2]) [%]
1 | C[S+]([O-])c1cn(-c2ncc(-c3cc(C#N)ccc3F)cn2)c2cc(C(=O)N3CCOCC3)ccc12 (centres unmarked) [Example 2, 4-Fluoro-3-(2-(3-(methylsulfinyl)-6-(morpholine-4-carbonyl)-1H-indol-1yl)pyrimidin-5-yl)benzonitrile] | 98 | 262 to 266 |  | 
2 | C[S+]([O-])c1cn(-c2ncc(-c3ccccc3Cl)cn2)c2cc(C(=O)N3CCOCC3)ccc12 (centres unmarked) [Example 3, (1-(5-(2-Chlorophenyl)pyrimidin-2-yl)-3-(methylsulfinyl)-1H-indol-6-yl)(morpholino) methanone] | 98 | 226 to 230 |  | 
3 | C[S+]([O-])c1cn(-c2ncc(-c3ccccc3)cn2)c2cc(C(=O)N3CCOCC3)ccc12 (centres unmarked) [Example 4, (3-(Methylsulfinyl)-1-(5-phenylpyrimidin-2-yl)-1H-indol-6-yl)(morpholino) methanone] | 82 | 239 to 242 |  | 
4 | CS(=O)(=O)c1cn(-c2ncc(-c3ccc(F)cc3F)cn2)c2cc(C(=O)N3CCOCC3)ccc12 [Example 6, (1-(5-(2,4-Difluorophenyl)pyrimidin-2-yl)-3-(methylsulfonyl)-1H-indol-6-yl)(morpholino)methanone] | 88 | 247 to 252 |  | 
5 | CS(=O)(=O)c1cn(-c2ncc(-c3ccc(C(N)=O)cc3F)cn2)c2cc(C(=O)N3CCOCC3)ccc12 [Example 7, 3-Fluoro-4-(2-(3-(methylsulfonyl)-6-(morpholine-4-carbonyl)-1H-indol-1-yl)pyrimidin-5-yl)benzamide] | 88 | 263 to 266 |  | 
6 | CS(=O)(=O)c1cn(-c2ncc(-c3ccccc3C#N)cn2)c2cc(C(=O)N3CCOCC3)ccc12 [Example 8, 2-(2-(3-(Methylsulfonyl)-6-(morpholine-4-carbonyl)-1H-indol-1-yl)pyrimidin-5-yl)benzonitrile] | 50 | 265 to 269 |  | 
7 | CS(=O)(=O)c1cn(-c2ncc(-c3ccccc3Cl)cn2)c2cc(C(=O)N3CCOCC3)ccc12 [Example 9, (1-(5-(2-Chlorophenyl)pyrimidin-2-yl)-3-(methylsulfonyl)-1H-indol-6-yl)(morpholino)methanone] | 78 | 235 to 239 |  | 
8 | CS(=O)(=O)c1cn(-c2ncc(-c3ccccc3)cn2)c2cc(C(=O)N3CCOCC3)ccc12 [Example 10, (3-(Methylsulfonyl)-1-(5-phenylpyrimidin-2-yl)-1H-indol-6-yl)(morpholino) methanone] | 74 | 270 to 274 |  | 
9 | CS(=O)(=O)c1cn(-c2ncc(-c3ccccc3F)cn2)c2cc(C(=O)N3CCOCC3)ccc12 [Example 11, (1-(5-(2-Fluorophenyl)pyrimidin-2-yl)-3-(methylsulfonyl)-1H-indol-6-yl)(morpholino)methanone] | 109 | 267 to 270 |  | 
10 | C[S+]([O-])c1cn(-c2ncc(-c3ccccc3)cn2)c2cc(C(=O)N3CCNCC3)ccc12 (centres unmarked) [Example 12, (3-(Methylsulfinyl)-1-(5-phenylpyrimidin-2-yl)-1H-indol-6-yl)(piperazin-1-yl)methanone] | 33 | 193 to 197 |  | 
11 | C[S+]([O-])c1cn(-c2ncc(-c3ccccc3F)cn2)c2cc(C(=O)N3CCNCC3)ccc12 (centres unmarked) [Example 13, (1-(5-(2-Fluorophenyl)pyrimidin-2-yl)-3-(methylsulfinyl)-1H-indol-6-yl)(piperazin-1-yl)methanone] | 51 | 199 to 203 |  | 
12 | C[S+]([O-])c1cn(-c2ncc(-c3ccc(F)cc3F)cn2)c2cc(C(=O)N3CCNCC3)ccc12 (centres unmarked) [Example 14, (1-(5-(2,4-Difluorophenyl)pyrimidin-2-yl)-3-(methylsulfinyl)-1H-indol-6-yl)(piperazin-1-yl)methanone] | 38 | 198 to 201 |  | 
13 | C[S+]([O-])c1cn(-c2ncc(-c3ccccc3C#N)cn2)c2cc(C(=O)N3CCNCC3)ccc12 (centres unmarked) [Example 16, 2-(2-(3-(Methylsulfinyl)-6-(piperazine-1-carbonyl)-1H-indol-1-yl)pyrimidin-5-yl)benzonitrile] |  | 230 to 235 |  | 
14 | CS(=O)(=O)c1cn(-c2ncc(-c3ccc(F)cc3F)cn2)c2cc(C(=O)N3CCNCC3)ccc12 [Example 23, (1-(5-(2,4-Difluorophenyl)pyrimidin-2-yl)-3-(methylsulfonyl)-1H-indol-6-yl)(piperazin-1-yl)methanone] |  | 229 to 233 |  | 
15 | CS(=O)(=O)c1cn(-c2ncc(-c3ccccc3C#N)cn2)c2cc(C(=O)N3CCNCC3)ccc12 [Example 25, 2-(2-(3-(Methylsulfonyl)-6-(piperazine-1-carbonyl)-1H-indol-1-yl)pyrimidin-5-yl)benzonitrile] |  | 193 to 197 |  | 
16 | C[S+]([O-])c1cn(-c2ncc(-c3ncc(C#N)s3)cn2)c2cc(C(=O)N3CCOCC3)ccc12 (centres unmarked) [Example 207, 2-(2-(3-(Methylsulfinyl)-6-(morpholine-4-carbonyl)-1H-indol-1-yl)pyrimidin-5-yl)thiazole-5-carbonitrile] |  | 280 to 283 |  | 
17 | CCc1ccnc(-c2cnc(-n3cc(S(C)(=O)=O)c4ccc(C(=O)N5CCOCC5)cc43)nc2)c1 [Example 325, (1-(5-(4-Ethylpyridin-2-yl)pyrimidin-2-yl)-3-(methylsulfonyl)-1H-indol-6-yl)(morpholino)methanone] |  |  | 91 | 
18 | CCOc1ccc(F)c(-c2cnc(-n3cc(S(C)(=O)=O)c4ccc(C(=O)N5CCOCC5)cc43)nc2)c1 [Example 326, (1-(5-(5-Ethoxy-2-fluorophenyl)pyrimidin-2-yl)-3-(methylsulfonyl)-1H-indol-6-yl)(morpholino)methanone] |  |  |  | 98
19 | CS(=O)(=O)c1cn(-c2ncc(-c3cc(C4CC4)ccn3)cn2)c2cc(C(=O)N3CCOCC3)ccc12 [Example 327, (1-(5-(4-Cyclopropylpyridin-2-yl)pyrimidin-2-yl)-3-(methylsulfonyl)-1H-indol-6-yl)(morpholino)methanone] |  |  | 90 | 
20 | Cc1ccc(F)c(-c2cnc(-n3cc(S(C)(=O)=O)c4ccc(C(=O)N(C)CC(N)=O)cc43)nc2)c1 [Example 328, N-(2-Amino-2-oxoethyl)-1-(5-(2-fluoro-5-methylphenyl)pyrimidin-2-yl)-N-methyl-3-(methylsulfonyl)-1H-indole-6-carboxamide] |  |  | 89 | 
21 | CCc1ccc(F)c(-c2cnc(-n3cc(C(C)O)c4ccc(C(=O)N(C)CC(N)=O)cc43)nc2)c1 (centres unmarked) [Example 331, N-(2-Amino-2-oxoethyl)-1-(5-(5-ethyl-2-fluorophenyl)pyrimidin-2-yl)-3-(1-hydroxyethyl)-N-methyl-1H-indole-6-carboxamide] |  |  | 109 | 
22 | Cc1ccnc(-c2cnc(-n3cc(C(C)O)c4ccc(C(=O)N(C)CC(N)=O)cc43)nc2)c1 (centres unmarked) [Example 332, N-(2-Amino-2-oxoethyl)-3-(1-hydroxyethyl)-N-methyl-1-(5-(4-methylpyridin-2-yl)pyrimidin-2-yl)-1H-indole-6-carboxamide] |  |  | 82 | 
23 | Cc1ccnc(-c2cnc(-n3cc([S+](C)[O-])c4ccc(C(=O)N5CC[C@@H](N)C5)cc43)nc2)c1 (stereo partly drawn) [Example 336, ((R)-3-Aminopyrrolidin-1-yl)(1-(5-(4-methylpyridin-2-yl)pyrimidin-2-yl)-3-(methylsulfinyl)-1H-indol-6-yl)methanone] |  |  | 64 | 
24 | C[S+]([O-])c1cn(-c2ncc(-c3cc(C4CC4)ccn3)cn2)c2cc(C(=O)N3CCCC3)ccc12 (centres unmarked) [Example 341, (1-(5-(4-Cyclopropylpyridin-2-yl)pyrimidin-2-yl)-3-(methylsulfinyl)-1H-indol-6-yl)(pyrrolidin-1-yl)methanone] |  |  | 108 | 
25 | COc1ccnc(-c2cnc(-n3cc([S+](C)[O-])c4ccc(C(=O)N5CCCC5)cc43)nc2)c1 (centres unmarked) [Example 342, (1-(5-(4-Methoxypyridin-2-yl)pyrimidin-2-yl)-3-(methylsulfinyl)-1H-indol-6-yl)(pyrrolidin-1-yl)methanone] |  |  | 113 | 
26 | CCOc1ccnc(-c2cnc(-n3cc([S+](C)[O-])c4ccc(C(=O)N5CCCC5)cc43)nc2)c1 (centres unmarked) [Example 343, (1-(5-(4-Ethoxypyridin-2-yl)pyrimidin-2-yl)-3-(methylsulfinyl)-1H-indol-6-yl)(pyrrolidin-1-yl)methanone] |  |  | 100 | 
27 | CS(=O)(=O)c1cn(-c2ncc(-c3ccccc3F)cn2)c2cc(C(=O)N3C[C@H]4C[C@@H]3CO4)ccc12 [Example 349, (1R,4R)-2-Oxa-5-azabicyclo[2.2.1]heptan-5-yl(1-(5-(2-fluorophenyl)pyrimidin-2-yl)-3-(methylsulfonyl)-1H-indol-6-yl)methanone] |  |  | 92 | 
28 | Cc1ccc(F)c(-c2cnc(-n3cc(S(C)(=O)=O)c4ccc(C(=O)N5CCOCC5)cc43)nc2)c1 [Example 350, (1-(5-(2-Fluoro-5-methylphenyl)pyrimidin-2-yl)-3-(methylsulfonyl)-1H-indol-6-yl)(morpholino)methanone] |  |  |  | 93
29 | Cc1ccnc(-c2cnc(-n3cc(S(C)(=O)=O)c4ccc(C(=O)N5CCOCC5)cc43)nc2)c1 [Example 353, (1-(5-(4-Methylpyridin-2-yl)pyrimidin-2-yl)-3-(methylsulfonyl)-1H-indol-6-yl)(morpholino)methanone] |  |  |  | 54
